Data from patent publication US5641760A, “Method of treating candida infection” (Pence, Inc., priority 1994, dated 1997).

Tests used:
[1] = test system: Candida albicans strain #40 fimbriae (enriched fimbriae EF, 66 kDa fimbrial subunit/adhesin protein); test: Thin-layer chromatography plate binding assay of fimbriae to glycosphingolipids; conditions: 10 μg GSL per spot; 100 μg EF/ml; detected with mAb Fm16
Experimental: Bound fimbriae on the TLC plates were visualized with a Protein G affinity-purified anti-C. albicans fimbriae monoclonal antibody, Fm16, obtained from ascites tumor in Balb/c mice as described below and a goat anti-mouse IgG alkaline phosphatase. […] (Lane 2).
The thin-layer chromatography (TLC) plate binding assay was performed as described by Baker et al. (1) with minor modifications. Aluminum-backed silica gel Si60 high performance TLC plates (Merck Kieselgel Si60, no fluorescence indicator, E. Merck, Darmstadt, Germany) were cut to produce 8×2.5 cm plates which were chromatographed with 100% methanol to the top of the plate to remove impurities and the plates were air dried. Glycosphingolipids (GSLs) (10 μg of each GSL) were loaded 1.0 cm above the base of the plate. The following glycosphingolipids purchased from Sigma Co. (St. Louis, Mo.) were used: mono-sialoganglioside (M-GM1), asialoganglioside GM1 (asialo-GM1), asialoganglioside GM2 (asialo-GM2), lactosylcerebroside (LCS), ceramide trihexoside (CTH). GSLs were separated on the TLC plates in chloroform-methanol-water (65:35:8, v/v/v) and air dried. One set of plates was sprayed with 10% sulphuric acid in ethanol and heated at 100°-150° C. for 5-10 min to char the GSLs for visual detection, and the other set was used for the fimbrial binding assay. The four corners of the plate were bent to 90° and the remainder of the assay was done with the TLC plates inverted in all solutions and at room temperature in an incubator shaker (model G25 Gyroshaker, New Brunswick Scientific, New Jersey, U.S.A.) at 20 rpm agitation. The TLC plate was blocked with 50 mM tris-hydroxy-methyl aminomethane pH 7.5 containing 150 mM NaCl (TBS), 0.25% (w/v) gelatin, 3% (w/v) BSA, 5 mM EDTA and 0.05% (v/v) Nonidet P40 in a glass petri dish for 2 hr at room temperature. The blocking solution was aspirated and 10 ml of EF (100 μg EF/ml in 100 mM TBS, pH 7.5) was then added. The fimbriae were allowed to bind to GSLs for 2 hours at room temperature. The plates were gently washed (2×5 min) with 10 ml of 100 mM TBS containing 0.1% (v/v) Tween 20 (TBST). The murine anti-EF monoclonal antibody, Fm16, was diluted 1:200 with TBST and 10 ml was added to the TLC plates. The solution was incubated for 1 hour at room temperature. Unbound antibodies were removed by washing the plates with 10 ml of TBST (2×5 min). The plate was then incubated with 10 ml of goat anti-mouse immunoglobulin G alkaline phosphatase conjugate (Jackson Laboratories) diluted 1:5,000 with TBST for 1 hour at room temperature. The plates were washed (2×5 min.) with 10 ml of TBST. The alkaline phosphatase activity was localized with Nitro Blue Tetrazolium chloride (NBT) and 5-bromo-4-chloro-3-indolyl phosphate (BCIP) dissolved in 100 mM Tris buffer, pH 9.5 containing 100 mM NaCl and 5 mM MgCl2. Color development was quenched by rinsing the TLC plate with deionized water and submerging the plate into a 150 mM EDTA solution pH 8.0 for 3-5 min. The plates were air dried, stored in plastic in the dark until they were photographed.

[2] = test system: Candida albicans strain #40 fimbriae (enriched fimbriae EF, 66 kDa fimbrial subunit/adhesin protein); test: Inhibition of fimbriae binding to immobilized βGalNAc(1-4)βGal-BSA conjugate; conditions: plates coated with 10 μg/ml conjugate; read-out: Half-maximal inhibition of fimbriae binding to βGalNAc(1-4)βGal-BSA conjugate
Experimental: Further experiments to determine the specificity of fimbrial binding to GSLs were carried out using a plate binding assay, as described above, but immobilizing on the plates a βGalNAc(1-4)βGal-BSA conjugate, synthesized from βGalNAc(1-4)βGal-O(CH2)8 COOCH3 (Sabesan and Lemieux), as described in Part B, above. The coupling ratio of disaccharide: BSA was 12:1. The protocol utilized for this assay was similar to that employed for the assessment of C. albicans fimbriae binding to GSLs except that the plates were coated with 100 μl/well of a 10 μg/ml solution of synthetic βGalNAc(1-4)βGal-BSA conjugate in 0.01M carbonate buffer, pH 9.5.
Using this assay, it was first determined that fimbriae bind to the βGalNAc(1-4)βGal-BSA conjugate in a saturable, concentration-dependent manner. FIGS. 12A and 12B show the results of experiments in which compounds were tested for ability to inhibit binding of fimbriae to the βGalNAc(1-4)βGal-BSA conjugate. The protocol used in this assay was similar to the one used in the GSL inhibition assay described above, except that the plates were coated with 100 μl/well of a 10 μg/ml solution of synthetic βGalNAc(1-4)βGal-BSA conjugate in 0.01M carbonate buffer, pH 9.5. As depicted in FIG. 12A, βGalNAc(1-4)βGal-methylester ("GalNAcGal") was able to inhibit binding to the GalNAcGal-BSA conjugate in a concentration dependent manner. […]

[3] = test system: Candida albicans fimbriae (binding to human BECs); test: Inhibition of fimbriae binding to human buccal epithelial cells (BECs); type: cell-based; conditions: fimbriae 50 μg preincubated with competitor 1 h at 37° C.; 2.0×10^5 BECs; competitor concentration not stated
Experimental: The percent inhibition is the inhibition of binding in the presence of the competing antigens with respect to binding observed in the absence of any competitors.
The fimbrial adherence assay was performed using a Manifold filtration apparatus equipped with individual vacuum stopcocks (Model FH 225V, Hoefer Scientific Instruments). Polycarbonate filters, 12 μm pore size (Nucleopore Costar Corp.), were pre-incubated overnight at 4° C. with 50 ml of PBS pH 7.2, containing 0.45% (v/v) Tween 20. The pretreated filters were placed into each chamber and washed with 2.5 ml of PBS. 1 ml containing 2.0×10^5 BECs in PBS was added to each chamber. Enriched fimbriae (100 μl/chamber, ranging from 0 to 80 μg fimbriae protein/ml) in PBS containing 0.05% (v/v) Tween-20 was added to each chamber and incubated with the BECs for 1.5 hours at room temperature. Unbound fimbriae were removed with washes of 2.5 ml of PBS. Mouse anti-C. albicans fimbriae monoclonal antibody (ascites fluid diluted 1:3000 with PBS) was added to the BECs (1.2 ml/chamber) and incubated for 1.5 hour at room temperature. BECs were washed five times with 2.5 ml of PBS. Goat anti-mouse IgG(H+L)-peroxidase conjugates (Jackson Laboratories) diluted 1:5000 with PBS was added (1.0 ml/chamber) and incubated for another hour at room temperature. The cells were then washed seven times with 2.5 ml/chamber of PBS. The polycarbonate filters containing BECs were removed from the filtration manifold and placed into glass scintillation vials. The horseradish peroxidase substrate solution (ABTS) was added to each vial (1 ml/vial) and incubated for 30 min at room temperature on a shaker at 100 rpm. The reaction was stopped by the addition of 4 mM sodium azide (200 μl/vial). The substrate solution was pipetted into Eppendorf tubes and centrifuged at 5,000 g for 3 minutes. Aliquots of the supernatants were pipetted into microtiter wells (200 μl/well) and the resulting absorbance at 405 nm was recorded with a Titertek Multiskan Plus microplate recorder. […]

[4] = test system: Candida albicans (binding to human buccal epithelial cells); test: Inhibition of C. albicans whole cell binding to human BECs; type: cell-based; conditions: fungal cells exposed to increasing concentrations, then mixed with BECs
Experimental: Further experiments were carried out to determine the ability of βGalNAc(1-4)βGal-methylester ("GalNAcGal") to inhibit binding between whole BECs and Candida albicans.
C. albicans cells were radiolabelled as previously described by McEachran and Irvin (35, 48), incorporated herein by reference. A loopful of culture from Sabouraud-dextrose agar (GIBCO) was used as a source of inoculum for 10 ml of M9 medium supplemented with 0.4% (w/v) glucose. Cultures were incubated at 25° C. for 12 hours with 150 rpm agitation in G25 Gyrotory shaker (New Brunswick Scientific Co.). Cultures were supplemented with 5 μCi/ml of [^35 S]-L-methionine (New England Nuclear, Boston, Mass.) after 10 hours of incubation. […] The amount of [^35 S]-L-methionine incorporated by the C. albicans cells was determined by filtering 1.0 ml of a 1:100 dilution of washed C. albicans culture through a 0.2 μm polycarbonate filter (Nucleopore Corp., Pleasanton, Calif.) in triplicate, washing with 15 ml of PBS, and placing the filter in scintillation vials with 5.0 ml of Aquasol (New England Nuclear, Massachusettes). The counts per minute were determined with a Beckman LS-150 liquid-scintillation counter. […]
In a similar manner, experiments were carried out testing the ability of βGalNac(1-4)βGal to inhibit binding of C. albicans to BECs. […] Total cell counts were determined using a hemocytometer. […]

Row | Compound | Binding of C. albicans fimbriae to glycosphingolipid on TLC plate [1] | IC50 [2] [µM] | Inhibition of C. albicans fimbriae binding to BECs [3] [%] | Inhibition of binding between whole BECs and Candida albicans [4]
1 | mono-sialoganglioside [GM1] | failed to bind | – | – | –
2 | COC(=O)CCCCCCCCO[C@@H]1O[C@H](CO)[C@H](O[C@@H]2O[C@H](CO)[C@H](O)[C@H](O)[C@H]2NC(C)=O)[C@H](O)[C@H]1O [βGalNAc(1-4)βGal-methylester] | – | 8.2 | 70 | inhibited the fungal cell-BEC interaction in a concentration dependent manner
3 | lactosyl cerebroside [LCS] | failed to bind | – | – | –
4 | gangliotriosylceramide: βGalNAc(1-4)βGal(1-4)βGlc(1-1)Cer [asialo-GM2] | bind specifically | – | – | –
